The record followed here is ChEMBL document CHEMBL1201862, “PubChem BioAssay data set” (2004).

Test systems include OVCAR-8; CAKI-1; UACC-257; MCF7; LOX IMVI; HCT-15; SN12C; NCI-H226; OVCAR-5; UACC-62; RXF 393; MDA-MB-435; EKVX; KM12; HT-29; K562; CCRF-CEM; SF-295; HOP-62; SF-268.
Common to all, as to assay: DTP human tumour cell line panel, 48 h

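Five concentrations, 48 hours, 96-well plates. GI50 is the concentration that inhibits growth by half.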 Active and inactive are the calls of the source. Rule as the data show it: active = GI50 up to about 1.1 µM and inactive = higher.

As usually defined, the GI50 is the concentration giving 50% growth inhibition. For `O=C(O)CCCCn1cnc2c(S)ncnc21`, the GI50 is > 100 µM (inactive) with OVCAR-8; > 100 µM (inactive) in the test with CAKI-1; > 100 µM (inactive) with UACC-257; > 100 µM (inactive) in the test with MCF7; > 100 µM (inactive) in the test with LOX IMVI; > 100 µM with HCT-15. Besides, the GI50 with SN12C, in the test with NCI-H226, with OVCAR-5, in the test with UACC-62, in the test on RXF 393 and in the test on MDA-MB-435 was > 100 µM (inactive) in each case. Also, the GI50 with EKVX is > 100 µM (inactive); with KM12 it was > 100 µM (inactive); in the test on HT-29, > 100 µM (inactive); in the test with K562, > 100 µM (inactive); with CCRF-CEM it was 4.33 µM (inactive); with SF-295, > 100 µM (inactive). Further, the GI50 with HOP-62 and in the test with SF-268 was > 100 µM (inactive) throughout.
For `Cc1cc2c(-c3ccccc3)cc(=O)[nH]c2cc1N`, the GI50 in the test with OVCAR-8 was > 100 µM (inactive); with CAKI-1, > 100 µM (inactive); with UACC-257, > 100 µM (inactive); with MCF7, > 100 µM (inactive); in the test with LOX IMVI it was > 100 µM (inactive); with HCT-15, > 100 µM. For the same compound, the GI50 in the test on SN12C, with NCI-H226, with OVCAR-5, in the test on UACC-62, in the test with RXF 393 and in the test with MDA-MB-435 was > 100 µM (inactive) throughout. Besides, the GI50 in the test on EKVX, with KM12, in the test with HT-29, in the test on K562, in the test on CCRF-CEM and in the test with SF-295 was > 100 µM (inactive) in each case. Moreover, in the test with HOP-62, the GI50 is > 100 µM (inactive).
`COc1cc(C2CC(C)(N3CCCC3)Oc3cc4c(cc32)OCO4)cc(OC)c1OC` (stereo unspecified): the GI50 in the test on OVCAR-8 is 0.524 µM (active); with CAKI-1, 0.527 µM (active); with UACC-257, 0.13 µM (active); in the test on MCF7 it was 0.0925 µM (active); in the test with LOX IMVI, 0.426 µM (active); in the test with HCT-15 it was 0.12 µM. The GI50 in the test on SN12C is 0.288 µM (active); in the test with NCI-H226 it was 4.69 µM (inactive); with OVCAR-5, > 100 µM (inactive); in the test on RXF 393 it was 0.0908 µM (active); in the test on MDA-MB-435, 0.0211 µM (active); in the test with EKVX, 0.456 µM (active). Besides, the GI50 is 0.182 µM (active) in the test with KM12; 0.165 µM (active) in the test on HT-29; 0.0371 µM (active) with K562; 0.184 µM (active) in the test with CCRF-CEM; 0.0762 µM (active) in the test with SF-295; 0.335 µM (active) in the test on HOP-62. Moreover, the 50% growth inhibitory concentration (GI50) in the test with SF-268 was 0.745 µM (active).
For `FC(F)(F)c1ccc2c(c1)nc(-c1ccc(Cl)cc1)n2CC1CCCN2CCCCC12` (stereo unspecified), the GI50 with OVCAR-8 was 15.6 µM (inactive); in the test with CAKI-1 it was 17.1 µM (inactive); with UACC-257, 14.9 µM (inactive); in the test on MCF7, 14.5 µM (inactive); with LOX IMVI it was 14.3 µM (inactive); in the test with HCT-15, 14.4 µM. The GI50 in the test with SN12C was 12.9 µM (inactive); in the test on NCI-H226, 14.8 µM (inactive); in the test with OVCAR-5 it was 6.41 µM (inactive); with UACC-62, 14.8 µM (inactive); in the test on RXF 393, 13.9 µM (inactive); with MDA-MB-435, 16.9 µM (inactive). Besides, the GI50 is 9.91 µM (inactive) with EKVX; 15.8 µM (inactive) in the test with KM12; 4.98 µM (inactive) with HT-29; 10.8 µM (inactive) with CCRF-CEM; 16.7 µM (inactive) in the test with SF-295; 13.9 µM (inactive) with HOP-62. In addition, the GI50 in the test on SF-268 was 14 µM (inactive).
For `CC(C)(Cc1ccccc1)NC1=NCCO1`, the GI50 was > 100 µM (inactive) in the test on OVCAR-8; > 100 µM (inactive) with CAKI-1; > 100 µM (inactive) with UACC-257; > 100 µM (inactive) in the test on MCF7; > 100 µM (inactive) in the test on LOX IMVI; > 100 µM in the test on HCT-15. In addition, the GI50 with NCI-H226, in the test on OVCAR-5, in the test on UACC-62, with RXF 393, with MDA-MB-435 and in the test on EKVX was > 100 µM (inactive) in each case. Also, the GI50 with KM12, with HT-29, in the test with K562, in the test with CCRF-CEM and in the test on SF-295 was > 100 µM (inactive) in each case.
For `CN(C)c1ccc(/C=N/c2ccc(-c3nc4ccccc4s3)cc2)cc1`, the GI50 is 39.5 µM (inactive) with OVCAR-8; 28.6 µM (inactive) in the test on CAKI-1; 28 µM (inactive) in the test on UACC-257; < 0.01 µM (active) with MCF7; 33.3 µM (inactive) in the test with LOX IMVI; 32.1 µM in the test with HCT-15. The GI50 in the test with SN12C was 36.1 µM (inactive); with NCI-H226, 32 µM (inactive); with OVCAR-5 it was 40.2 µM (inactive); in the test on UACC-62, 8.59 µM (inactive); in the test on RXF 393, 17.9 µM (inactive); in the test on MDA-MB-435 it was 33.8 µM (inactive). Also, the GI50 was 24.6 µM (inactive) in the test on EKVX; 24.9 µM (inactive) in the test on KM12; 32.5 µM (inactive) in the test with HT-29; 28.8 µM (inactive) in the test on K562; 0.578 µM (active) in the test with CCRF-CEM; 4.54 µM (inactive) in the test with SF-295. For the same compound, the GI50 in the test with HOP-62 was 24.5 µM (inactive).
Take `CC(=O)O[C@H]1C(=O)[C@@]2(C)[C@H]([C@H](OC(=O)c3ccccc3)[C@]3(O)C[C@H](OC(=O)[C@H](O)[C@@H](NC(=O)CC(C)C)c4ccccc4)C(C)=C1C3(C)C)[C@]1(OC(C)=O)CO[C@@H]1C[C@@H]2O`: the GI50 in the test with OVCAR-8 is 0.00548 µM (active); in the test with CAKI-1 it was 0.378 µM (active); in the test with UACC-257 it was 0.015 µM (active); in the test on MCF7 it was < 0.001 µM (active); in the test with LOX IMVI, 0.00619 µM (active); with HCT-15, 0.547 µM. Besides, the GI50 with SN12C is 0.00524 µM (active); in the test with NCI-H226, 0.038 µM (active); in the test with OVCAR-5, 0.226 µM (active); in the test with UACC-62 it was 0.00475 µM (active); with RXF 393 it was 0.0141 µM (active); in the test on MDA-MB-435, < 0.001 µM (active). Besides, the GI50 in the test with EKVX is 0.428 µM (active); with HT-29 it was < 0.001 µM (active); with K562, 0.00179 µM (active); in the test with CCRF-CEM, 0.00198 µM (active); in the test on SF-295, 0.0445 µM (active); with HOP-62 it was 0.0221 µM (active). For the same compound, in the test with SF-268, the GI50 is 0.00486 µM (active).
For the compound `N#Cc1nc(/C=C/c2ccccc2)oc1N`, the GI50 in the test on OVCAR-8 was > 100 µM (inactive); in the test with CAKI-1, > 100 µM (inactive); with UACC-257 it was > 100 µM (inactive); with MCF7, > 100 µM (inactive); with LOX IMVI it was > 100 µM (inactive); in the test with HCT-15, > 100 µM. Moreover, the GI50 in the test with SN12C, in the test on NCI-H226, in the test on OVCAR-5, with RXF 393, in the test with MDA-MB-435 and with EKVX was > 100 µM (inactive) each time. In addition, the GI50 in the test on KM12, in the test with HT-29, with K562, with CCRF-CEM, with SF-295 and in the test on HOP-62 was > 100 µM (inactive) each time. For the same compound, the GI50 in the test with SF-268 was > 100 µM (inactive).
With `Cc1cn(C2CC(N=[N+]=[N-])C(COP(=O)(O)OCC3OC(n4cc(F)c(=O)[nH]c4=O)CC3O)O2)c(=O)[nH]c1=O` (stereo unspecified), the GI50 is 5.94 µM (inactive) in the test on OVCAR-8; 1.32 µM (inactive) with CAKI-1; 96.6 µM (inactive) with UACC-257; 0.137 µM (active) in the test on MCF7; 0.653 µM (active) in the test with LOX IMVI; > 100 µM in the test with HCT-15. In addition, the GI50 with SN12C was > 100 µM (inactive); in the test with NCI-H226 it was > 100 µM (inactive); with OVCAR-5 it was > 100 µM (inactive); in the test with UACC-62 it was 8.34 µM (inactive); in the test with RXF 393, > 100 µM (inactive); in the test on MDA-MB-435, 16 µM (inactive). The GI50 in the test on EKVX is 6.46 µM (inactive); with KM12, > 26.4 µM (inactive); in the test on HT-29 it was > 100 µM (inactive); in the test on CCRF-CEM, 0.312 µM (active); in the test with SF-295, 0.337 µM (active); in the test on HOP-62 it was 0.348 µM (active). In addition, the concentration for 50% growth inhibition (GI50) with SF-268 is 0.442 µM (active).
Take `O=c1[nH]c(=S)c2cc3c(=S)[nH]c(=O)n(CCO)c3nc2n1CCO`: the GI50 in the test on OVCAR-8 was > 100 µM (inactive); with CAKI-1 it was > 100 µM (inactive); in the test with UACC-257, > 100 µM (inactive); in the test with MCF7, > 100 µM (inactive); with LOX IMVI it was > 100 µM (inactive); in the test on HCT-15, > 100 µM. For the same compound, the GI50 in the test with SN12C, in the test on NCI-H226, with OVCAR-5, in the test with RXF 393, in the test with MDA-MB-435 and in the test with EKVX was > 100 µM (inactive) in each case. Also, the GI50 with KM12, in the test with K562, with CCRF-CEM, with SF-295, in the test on HOP-62 and in the test on SF-268 was > 100 µM (inactive) each time.
For `Cc1cc2nc3c(C#N)c4c(c(-c5ccc(Cl)cc5)n3c2cc1C)CCC4`, the GI50 is 19.4 µM (inactive) with CAKI-1; 21.4 µM (inactive) in the test on UACC-257; 33.1 µM (inactive) with MCF7; 30.2 µM (inactive) with LOX IMVI; 27.9 µM with HCT-15; 30.3 µM (inactive) in the test on SN12C. For the same compound, the GI50 is 21.1 µM (inactive) with NCI-H226; 18.4 µM (inactive) in the test on UACC-62; 45 µM (inactive) in the test with RXF 393; 22.5 µM (inactive) with MDA-MB-435; 24.2 µM (inactive) in the test on EKVX; 22 µM (inactive) in the test with KM12. The GI50 was 21.3 µM (inactive) in the test on HT-29; 23.1 µM (inactive) with K562; 24.2 µM (inactive) in the test on CCRF-CEM; 17.2 µM (inactive) with SF-295; 22.4 µM (inactive) in the test on HOP-62; 24.3 µM (inactive) with SF-268.
